Source: patent US20100099793A1, “Gluing and Sealing Compounds Having Antimicrobial Properties” (Thor GmbH, priority 2006, published 2010)

Columns and labels:
[1] = tested on: mixture of fungal spores (Aspergillus niger, Alternaria alternata, Penicillium funiculosum, Paecilomyces variotii, Gliocladium virens, Chaetomium globosum); assay: Microbiological test along the lines of EN ISO 846 part B: fungal growth on sealant test specimens on complete agar; format: cell-based; design: key to Fungal growth after 28 d Method B Complete agar a / Fungal growth after 28 d Method B Complete agar b: 0: No growth evident when viewed with a microscope.; 1: Slight growth, no growth evident to the naked eye, readily apparent microscopically.; Slight growth, readily apparent macroscopically, growth over not more than 25% of the sample surface.; 3: Moderate growth, growth over up to 50% of the sample surface.; 4: Severe growth, growth over more than 50% of the sample surface, but not over the entire area.; 5: Severe growth over the entire sample surface; details: silicone; for Fungal growth after 28 d Method B Complete agar a: duplicate a; for Fungal growth after 28 d Method B Complete agar b: duplicate b
Procedure: The microbiological tests were carried out each in duplicate determinations along the lines of the standard EN ISO 846 B. For this purpose the sealants themselves were applied to inert support material (e.g., glass plates) approximately 2 mm thick, and, after curing, were cut into sections measuring 3×3 cm.
[…] In this test, the test specimens were placed on carbon-containing nutrient media (complete agar) for monitoring of the fungicidal action, and were then sprayed with a mixture of fungal spores; 0.1 ml of suspension per test specimen.
The spore suspension contained 10^6 CFU/ml and comprised the following fungi:
The samples thus inoculated were incubated at 25° C. for 28 days. This was followed by a visual evaluation of the sample surface. Where no growth was evident with the naked eye, the test took place with the assistance of a microscope. The ISO 846 tests were evaluated using the following scheme: • 0 No growth evident when viewed with a microscope. • 1 Slight growth, no growth evident to the naked eye, readily apparent microscopically. • 2 Slight growth, readily apparent macroscopically, growth over not more than 25% of the sample surface. • 3 Moderate growth, growth over up to 50% of the sample surface. • 4 Severe growth, growth over more than 50% of the sample surface, but not over the entire area. • 5 Severe growth over the entire sample surface.

[2] = Analysis for active in the sealant without and after water storage (retention / leaching); format: physicochemical; details: silicone; for Active [ppm] Oit: oxime basis, 1000 ppm added
Procedure: These sections, described below as test specimens, were subjected, both without water storage and after 2 days of water storage in fully demineralized water, with a change of water at 24 hours, to the ISO 846 test, part B. In this test, the test specimens were placed on carbon-containing nutrient media (complete agar) for monitoring of the fungicidal action, and were then sprayed with a mixture of fungal spores; 0.1 ml of suspension per test specimen.
These sealants were analyzed for the amounts of OIT present, both without water storage and after 2 days of water storage, and the leaching (%) was calculated.

[3] = acetoxy basis, 500 ppm, water storage 0 d
[4] = acetoxy basis, 500 ppm, water storage 3 months (once a week 24 hour storage in fully demineralized water)
[5] = acetoxy basis, 1000 ppm, water storage 0 d
[6] = acetoxy basis, 1000 ppm, water storage 3 months (once a week 24 hour storage in fully demineralized water)
[7] = oxime basis, 500 ppm, water storage 0 d
[8] = oxime basis, 500 ppm, water storage 2 d
[9] = oxime basis, 1000 ppm, water storage 0 d
[10] = oxime basis, 1000 ppm, water storage 2 d

## CCCCCCCCn1sccc1=O [OIT, 2-n-octyl-4-isothiazolin-3-one]
[1]; [3]
  Fungal growth after 28 d Method B Complete agar a: 1
  Fungal growth after 28 d Method B Complete agar b: 2 (Slight growth, readily apparent macroscopically, growth over not more than 25% of the sample surface.)
[1]; [4]
  Fungal growth after 28 d Method B Complete agar a: 5
  Fungal growth after 28 d Method B Complete agar b: 5
[1]; [5]
  Fungal growth after 28 d Method B Complete agar a: 0
  Fungal growth after 28 d Method B Complete agar b: 0
[1]; [6]
  Fungal growth after 28 d Method B Complete agar a: 4 (Severe growth, growth over more than 50% of the sample surface, but not over the entire area.)
  Fungal growth after 28 d Method B Complete agar b: 5
[1]; acetoxy basis, after the 3-month water storage cycles
  fungal growth (in words): heavily overgrown
[1]; acetoxy basis, without water storage (0d)
  fungal growth / action (in words): good action
[1]; [7]
  Fungal growth after 28 d Method B Complete agar a: 0
  Fungal growth after 28 d Method B Complete agar b: 1
[1]; [8]
  Fungal growth after 28 d Method B Complete agar a: 3 (Moderate growth, growth over up to 50% of the sample surface.)
  Fungal growth after 28 d Method B Complete agar b: 3 (Moderate growth, growth over up to 50% of the sample surface.)
[1]; [9]
  Fungal growth after 28 d Method B Complete agar a: 0
  Fungal growth after 28 d Method B Complete agar b: 0
[1]; [10]
  Fungal growth after 28 d Method B Complete agar a: 3 (Moderate growth, growth over up to 50% of the sample surface.)
  Fungal growth after 28 d Method B Complete agar b: 2 (Slight growth, readily apparent macroscopically, growth over not more than 25% of the sample surface.)
[1]; oxime basis, after water storage (2d)
  fungal growth (in words): moderately severe growth
[2]; acetoxy system, 400 ppm of OIT introduced, after 2 days of water storage
  Amount of active (ppm) With water storage: 265 ppm
[2]; acetoxy system, 400 ppm of OIT introduced, calculated from amounts without and after 2 days of water storage
  % leaching: 37%
[2]; acetoxy system, 400 ppm of OIT introduced, without water storage
  Amount of active (ppm) Without water storage: 420 ppm
[2]; 0 d (before water storage)
  Active [ppm] Oit: 740 ppm
[2]; 2 d (after water storage)
  Active [ppm] Oit: 230 ppm

## COC(=O)Nc1nc2ccccc2[nH]1 [carbendazim]
[1]; [3]
  Fungal growth after 28 d Method B Complete agar a: 3 (Moderate growth, growth over up to 50% of the sample surface.)
  Fungal growth after 28 d Method B Complete agar b: 4 (Severe growth, growth over more than 50% of the sample surface, but not over the entire area.)
[1]; [4]
  Fungal growth after 28 d Method B Complete agar a: 5
  Fungal growth after 28 d Method B Complete agar b: 5
[1]; acetoxy basis, 1000 ppm of active, without water storage (0d)
  fungal colonization (in words): slight colonization
[1]; [5]
  Fungal growth after 28 d Method B Complete agar a: 2 (Slight growth, readily apparent macroscopically, growth over not more than 25% of the sample surface.)
  Fungal growth after 28 d Method B Complete agar b: 2 (Slight growth, readily apparent macroscopically, growth over not more than 25% of the sample surface.)
[1]; [6]
  Fungal growth after 28 d Method B Complete agar a: 4 (Severe growth, growth over more than 50% of the sample surface, but not over the entire area.)
  Fungal growth after 28 d Method B Complete agar b: 5
[1]; acetoxy basis, both 500 and 1000 ppm, after the 3-month water storage cycle
  fungal growth (in words): severe fungal growth
